26 molecules from ChEMBL document CHEMBL1133448, “Computational studies on HIV-1 protease inhibitors: influence of calculated inhibitor-enzyme binding affinities on the statistical quality of 3D-QSAR CoMFA models” (J Med Chem, 2000) can be followed below.

The target in this test is Human immunodeficiency virus type 1 protease (Human immunodeficiency virus 1, UniProt Q72874). Briefly: Inhibition of human immunodeficiency virus type 1 (HIV-1) protease enzyme.

Usually IC50 stands for the midpoint of a concentration-inhibition curve. Low readings indicate greater potency in that assay, high ones weaker potency in that assay. With `CC(C)(C)OC(=O)N[C@@H](Cc1ccccc1)[C@@H](O)CCC(=O)NC1c2ccccc2C[C@@H]1O` (stereo partly specified), the IC50 was 2950 nM.
The value for `O=C(N[C@@H](Cc1ccccc1)[C@@H](O)C[C@@H](Cc1ccccc1)C(=O)NC1c2ccccc2C[C@@H]1O)OC1CCOC1` (stereo partly specified) was 0.0603 nM; that for `CC(C)(C)OC(=O)N[C@@H](Cc1ccccc1)[C@@H](O)/C=C(/Cc1ccccc1)C(=O)NC1c2ccccc2C[C@@H]1O` (stereo partly specified) was 1.29 nM; that for `CC(C)(C)OC(=O)N[C@@H](Cc1ccc(O)cc1)[C@@H](O)C1CCCC1C(=O)NCc1ccccc1` (stereo partly specified) was 589 nM.
The value for `CC(C)(C)OC(=O)NC(Cc1ccccc1)[C@@H](O)CC(CSc1ccccc1)C(=O)NC1c2ccccc2C[C@@H]1O` (stereo partly specified) was 0.251 nM; that for `CC(C)(C)OC(=O)N[C@@H](Cc1ccccc1)[C@@H](O)C[C@@H](Cc1ccc(O)cc1)C(=O)NC1c2ccccc2C[C@@H]1O` (stereo partly specified) was 0.158 nM; that for `CC(C)(C)OC(=O)N[C@@H](Cc1ccccc1)[C@@H](O)C[C@@H](Cc1ccccc1)C(=O)NC1C=CC[C@@H]1O` (stereo partly specified) was 9.55 nM.
The value for `CC(C)(C)OC(=O)N[C@@H](Cc1ccccc1)[C@@H](O)C[C@@H](Cc1ccccc1)C(=O)NC1c2ccccc2C(O)[C@@H]1O` (stereo partly specified) was 0.1 nM; that for `C=CC[C@H](C[C@H](O)[C@H](Cc1ccccc1)NC(=O)OC(C)(C)C)C(=O)NC1c2ccccc2C[C@@H]1O` (stereo partly specified) was 27.5 nM.
`COC(=O)C1Cc2ccccc2C1NC(=O)[C@H](Cc1ccccc1)C[C@H](O)[C@H](Cc1ccccc1)NC(=O)OC(C)(C)C` (stereo partly specified) showed a concentration for half-maximal inhibition (IC50) of 66.1 nM.
`Cc1ccc(C[C@H](C[C@H](O)[C@H](Cc2ccccc2)NC(=O)OC(C)(C)C)C(=O)NC2c3ccccc3C[C@@H]2O)cc1` (stereo partly specified) showed a concentration for half-maximal inhibition (IC50) of 0.288 nM.
Then `CC(C)(C)OC(=O)N[C@@H](Cc1ccccc1)[C@@H](O)C[C@@H](Cc1ccccc1)C(=O)NC1CCc2ccccc21` (stereo partly specified), with 33.9 nM.
Then `CC(C)(C)OC(=O)N[C@@H](Cc1ccccc1)[C@@H](O)C[C@@H](Cc1ccccc1)C(=O)NC1c2ccccc2C[C@@H]1O` (stereo partly specified), with 0.251 nM; and `CC(C)(C)OC(=O)N[C@@H](Cc1ccccc1)[C@@H](O)CC(=O)NC1c2ccccc2C[C@@H]1O` (stereo partly specified), with 562 nM.
Then `CC(C)(C)OC(=O)N[C@@H](Cc1ccccc1)[C@@H](O)C[C@@H](Cc1ccc(C(F)(F)F)cc1)C(=O)NC1c2ccccc2C[C@@H]1O` (stereo partly specified), with 0.257 nM.
In turn, `CC(C)(C)OC(=O)N[C@@H](Cc1ccccc1)[C@@H](O)C[C@@H](CCCc1ccccc1)C(=O)NC1c2ccccc2C(O)[C@@H]1O` (stereo partly specified) showed a half-inhibitory concentration (IC50) of 0.191 nM.
Regarding `O=C(NC1c2ccccc2C[C@@H]1O)[C@H](Cc1ccccc1)CC(O)C[C@@H](Cc1ccccc1)C(=O)NC1c2ccccc2C[C@@H]1O` (stereo partly specified), the 50% inhibitory concentration (IC50) is 0.692 nM.
Then `CC(C)(C)OC(=O)N[C@@H](Cc1ccccc1)[C@@H](O)C[C@@H](Cc1c(F)c(F)c(F)c(F)c1F)C(=O)NC1c2ccccc2C[C@@H]1O` (stereo partly specified), with 0.603 nM; and `CC(C)(C)OC(=O)N[C@@H](Cc1ccccc1)[C@@H](O)CC1(Cc2ccccc2)CCCN(C2c3ccccc3C[C@@H]2O)C1=O` (stereo partly specified), with 1260 nM.
The value for `CC(C)(C)OC(=O)NC(Cc1ccccc1)[C@@H](O)CC(Cc1ccc([N+](=O)[O-])cc1)C(=O)NC1c2ccccc2C[C@@H]1O` (stereo partly specified) was 0.269 nM; that for `CC(C)(C)OC(=O)NC(Cc1ccccc1)[C@@H](O)CC(Cc1ccc(N)cc1)C(=O)NC1c2ccccc2C[C@@H]1O` (stereo partly specified) was 0.309 nM; that for `CC(C)(C)OC(=O)N[C@@H](Cc1ccccc1)[C@@H](O)C[C@H](C(=O)NC1c2ccccc2C[C@@H]1O)C(=O)c1ccccc1` (stereo partly specified) was 5.37 nM.
The molecule `CC(C)(C)OC(=O)N[C@@H](Cc1ccccc1)[C@@H](O)C[C@@H](Cc1ccncc1)C(=O)NC1c2ccccc2C[C@@H]1O` (stereo partly specified) had an IC50 of 0.525 nM.
In turn, `CC(C)(C)OC(=O)N[C@@H](Cc1ccccc1)[C@@H](O)C[C@@H](C/C=C/c1ccccc1)C(=O)NC1c2ccccc2C[C@@H]1O` (stereo partly specified) showed a concentration for half-maximal inhibition (IC50) of 0.229 nM. Compared with the last molecule, the IC50 is about 2.3-fold lower.
Consider `CC(C)(C)OC(=O)N[C@@H](Cc1ccccc1)[C@@H](O)C[C@@H](Cc1ccccc1)C(=O)NC1c2ccccc2OC[C@@H]1O` (stereo in doubt; 26), for which the IC50 was 0.178 nM.
Then `CC(C)(C)OC(=O)N[C@@H](Cc1ccccc1)[C@@H](O)C[C@@H](Cc1ccccc1)C(=O)NC1c2ccccc2OC[C@@H]1O` (stereo in doubt; 27), with 40.7 nM.
